Source: paper PMC11345766, “Computational Design of Pore-Forming Peptides with Potent Antimicrobial and Anticancer Activities” (Journal of Medicinal Chemistry, 2024)
Ends that are not written are not given here.

Assays:
[1] = tested on: panel of 20 different human cancer and 2 noncancerous cell lines; type: cell-based; conditions: 72 h
Protocol: First, we tested LP40 and LP1 for anticancer activity at the physiological pH. The peptides were screened against a panel of 20 different human cancer and 2 noncancerous cell lines using a CellTiter-Glo luminescent cell viability assay (Figure 6b). […] For few exceptional cell lines, the activity of LP40 was below 10 μM.
The CellTiter-Glo luminescent cell viability assay examining the impact of peptides on 22 different human cell lines was purchased from Reaction Biology Europe GmbH (Germany). Cells were cultured in different media (Table S1), seeded into a flat-bottom 96-well plate, and incubated at 37 °C. After overnight incubation, test compounds were added with 1% PBS/0.3% Tween 20 and the reference compound bortezomib was added with 0.1% DMSO. Negative controls were solvents alone, and positive control was 10 μM staurosporine. After 72 h of incubation at 37 °C, 5 or 10% CO2 (dependent on the medium), and 1 h equilibration at room temperature, well plates were treated with CellTiter-Glo reagent (Promega) for an hour and luminescence was measured using a luminometer.

[2] = tested on: normal B and T lymphocytes, granulocytes, and monocytes in whole blood; assay: Viability by flow cytometric staining in whole blood; type: cell-based, human; conditions: up to the highest tested concentration of 50 μM; 16 h
Protocol: Finally, we tested the effect of LP1 and LP40 on healthy primary cells in whole blood from a healthy donor (Figure S11).
The whole blood was seeded in a 96-well plate at 200 μL/well and treated with peptides for 16 h. The samples were then stained with anti-CD3 (FITC, Sony), anti-CD14 (APC-Cy7, Sony), and anti-CD19 (PE, Beckman Coulter) antibodies and incubated for 20 min at room temperature in the dark. The cells were then incubated with red blood cell lysis buffer for 10 min at room temperature, centrifuged, resuspended in PBS containing SYTOX Blue Dead Cell Stain (Thermo Fisher Scientific) and measured using a FACSVerse flow cytometer (BD Biosciences).

E. coli (E1098) = conditions: E1098, 18 h
[3] = AFM imaging of supported lipid bilayers; conditions: P:L 1:500 (1 μM peptide)
Protocol: The SLBs were composed of POPC:POPG (1:1 mol/mol) lipids, the same composition used in the dye leakage assay. […] The pores were stable for an investigation period of 2 h and were visibly more numerous than those produced by LP1.[29]
Effects of peptides on the SLBs composed of POPC:POPG (1:1 mol/mol) lipids was investigated using AFM. LUVs were prepared in lipid dissolution buffer (50 mM Tris–HCl and 50 mM KCl) following a dye leakage assay protocol without calcein. Vesicles were sonicated for 30 min at 25 °C and extruded through a 50 nm pore size filter to form small unilamellar vesicles (SUVs). Following the vesicle deposition method,[103] SLBs were formed on mica using SUVs in SLB-forming buffer (50 mM Tris–HCl and 300 mM KCl) and 5 mM CaCl2, mounting a total volume of 150 μL on mica. After 1 h incubation at 25 °C, mica was washed 10 times with SLB-forming buffer and subjected to AFM analysis. The investigated P:L ratio was 1:500 (mol/mol). Bruker Dimension Icon AFM (USA) equipped with a PeakForce-HIRS-F-B silicon nitride probe (spring constant 0.12 N/m) was used to capture topographic images. PeakForce Quantitative NanoMechanic hybrid mode was used with 2 kHz frequency and 25 nm amplitude using set point <100 pN. The scan rate was 1 Hz using 512 samples/line. […]

H-HHHHLKKILKKLFQFINQLDNQLQDIHHHH-OH [LP40]
IC50 [1]: > 100 µM

KKKKLKKILKKLFQFINQLDNQLQDIKQNK-NH2 [LP1]
Effect on healthy primary cells in whole blood [2]: no apparent deleterious effect | MIC (E. coli (E1098)): 1 µM

KKKKLKKILKKLFQFINQLDNQLQDIKKKK-NH2 [LP18]
Membrane defects or pores formed on SLBs [3]: significantly higher number of membrane defects or pores than LP1
